{"source": "the NIST ThermoML archive (doi:10.1021/acs.jced.8b01220)", "details": "Crystal; DSC", "note": "Numbers after ± are expanded uncertainties."}
{"smiles": "CC(C)(N)CO", "note": "[2-amino-2-methylpropan-1-ol]", "values": [{"measurement": "Triple point temperature", "result": "295.75 ± 2", "unit": "K"}]}
